Reference: the NIST ThermoML archive (doi:10.1021/je0202174)
± gives the expanded uncertainty stated by the source.

Conditions: Liquid

CCC(C)C [2-methylbutane]
Conditions	viscosity [mPa·s]
253.15 K	0.3893 ± 0.0075
258.15 K	0.3661 ± 0.0072
263.15 K	0.3439 ± 0.0069
268.15 K	0.3201 ± 0.0065
273.15 K	0.3023 ± 0.0063
278.15 K	0.2859 ± 0.0061
283.15 K	0.2703 ± 0.0058
288.15 K	0.2547 ± 0.0056
293.15 K	0.2399 ± 0.0054
298.15 K	0.2289 ± 0.0052
303.15 K	0.2144 ± 0.005
308.15 K	0.2023 ± 0.0049
313.15 K	0.191 ± 0.0047
318.15 K	0.1813 ± 0.0046
323.15 K	0.1724 ± 0.0044
328.15 K	0.1611 ± 0.0043
333.15 K	0.1543 ± 0.0042
338.15 K	0.148 ± 0.0041
343.15 K	0.1411 ± 0.004
348.15 K	0.1332 ± 0.0039
353.15 K	0.1287 ± 0.0038

C1CCCC1 [cyclopentane]
Conditions	viscosity [mPa·s]
253.15 K	0.7268 ± 0.012
258.15 K	0.6786 ± 0.011
263.15 K	0.6347 ± 0.011
268.15 K	0.593 ± 0.01
273.15 K	0.5567 ± 0.0098
278.15 K	0.5224 ± 0.0093
283.15 K	0.4922 ± 0.0089
288.15 K	0.4646 ± 0.0085
293.15 K	0.4382 ± 0.0081
298.15 K	0.4148 ± 0.0078
303.15 K	0.3923 ± 0.0075
308.15 K	0.3714 ± 0.0072
313.15 K	0.3521 ± 0.0069
318.15 K	0.335 ± 0.0067
323.15 K	0.319 ± 0.0065
328.15 K	0.3048 ± 0.0063
333.15 K	0.2912 ± 0.0061
338.15 K	0.2793 ± 0.0059
343.15 K	0.269 ± 0.0058
348.15 K	0.259 ± 0.0056
353.15 K	0.2502 ± 0.0055
